Our source for the Activity and IC50 values is ChEMBL document CHEMBL4043128, “Design, synthesis and biological evaluation of Lenalidomide derivatives as tumor angiogenesis inhibitor” (Bioorg Med Chem Lett, 2017).

Experiment [1] deals with EC9706. Description: Antiproliferative activity against human EC9706 cells at 150 ug/mL after 48 hrs by CCK-8 assay. The format is functional, cell-based. (Formazan colour is commonly taken as a measure of viable cells.)
For experiment [2], the system named is EC9706. Description: Antiproliferative activity against human EC9706 cells at >= 600 ug/mL after 48 hrs by CCK-8 assay relative to control. It is filed as functional.
Experiment [3] concerns EC9706. Description: Antiproliferative activity against human EC9706 cells after 48 hrs by CCK-8 assay. It is filed as functional, cell-based. The conditions noted are these: for IC50: EC9706, 48 h.

Structures are written as SMILES. In brackets after ≈: the same amount, converted by molar mass. Activity calls are given as the source filed them. The calls are words filed in the database; no cut-off is given here.

For orientation: IC50 means the concentration needed to halve the response being measured. For the compound `Nc1cccc2c1CN(C1CCC(=O)NC1=O)C2=O` (stereo unspecified) [LENALIDOMIDE], the outcome in the experiment with EC9706 [1] was Active. The Activity in the experiment with EC9706 [2] was 100%. Besides, in the experiment on EC9706 [3], the Activity entry is “Dose-dependent effect” and the IC50 was found to be 340 µg/mL (≈ 1310 µM).

As to `Cc1ccc(S(=O)(=O)Nc2cccc3c2CN(C2CCC(=O)NC2=O)C3=O)cc1` (stereo unspecified), in the experiment on EC9706 [1], the result was Active. Also, the results for the Activity in the experiment with EC9706 [2] and in the experiment with EC9706 [3] were 100% and “Dose-dependent effect”, respectively. The compound further gave an IC50 with EC9706 [3] of 225 µg/mL (≈ 545 µM).

Consider `Cc1ccc(CNc2cccc3c2CN(C2CCC(=O)NC2=O)C3=O)cc1` (stereo unspecified), for which the result in the experiment with EC9706 [1] was Active. In the experiment on EC9706 [2], this compound returned an Activity of 100%. Further, in the experiment with EC9706 [3], the Activity result was “Dose-dependent effect” and half-maximal inhibition (IC50) was put at 310 µg/mL (≈ 852 µM).

On to `Cc1ccc(C(=O)Nc2cccc3c2CN(C2CCC(=O)NC2=O)C3=O)cc1` (stereo unspecified), for which the result in the experiment with EC9706 [1] was Active. In the experiment with EC9706 [2], this compound displayed an Activity of 100%. Besides, in the experiment on EC9706 [3], the Activity result was “Dose-dependent effect” and half-maximal inhibition (IC50) was put at 262 µg/mL (≈ 694 µM).
